# Target: Beta-1 adrenergic receptor (Homo sapiens, UniProt P08588)
# Experiment: Binding affinity to beta1 adrenergic receptor (unknown origin)
# Chain of Beta-1 adrenergic receptor (P08588 whole entry): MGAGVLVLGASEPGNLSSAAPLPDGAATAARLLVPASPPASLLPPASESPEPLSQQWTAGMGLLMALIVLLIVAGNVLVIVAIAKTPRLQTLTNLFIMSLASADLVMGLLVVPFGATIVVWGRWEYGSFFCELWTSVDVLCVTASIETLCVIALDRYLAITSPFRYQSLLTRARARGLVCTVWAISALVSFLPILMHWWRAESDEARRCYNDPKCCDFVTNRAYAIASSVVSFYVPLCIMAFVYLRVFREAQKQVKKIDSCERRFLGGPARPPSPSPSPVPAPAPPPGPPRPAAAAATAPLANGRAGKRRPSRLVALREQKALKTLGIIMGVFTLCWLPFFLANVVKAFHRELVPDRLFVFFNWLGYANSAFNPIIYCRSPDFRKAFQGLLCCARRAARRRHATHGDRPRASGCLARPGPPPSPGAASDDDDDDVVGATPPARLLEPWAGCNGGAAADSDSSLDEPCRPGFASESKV
smiles,measurement,value
Cc1cc(N2CCNCC2)nc2ccccc12,Ki,220 nM

# — ChEMBL document CHEMBL2331193, “Structure-based fragment screening is demonstrated to be a practical lead discovery method for a representative G-protein-coupled receptor” (J Med Chem, 2013)
